# Assay results from patent US7314864B1, “Humanin, a polypeptide suppressing neuronal death” (Keio University, priority 1999, dated 2008).
# No end group written: not given here.
# What was measured:
# [1] = test system: F11 cells transfected with V642I APP cDNA; assay: V642I APP-induced F11 cell death, trypan blue exclusion assay; format: cell-based; settings: for suppression of V642I APP-induced cell death: 10 nM polypeptide
# Protocol: (§1) F11 cells (Platika, D. et al. (1985) Proc. Natl. Acad. Sci. U.S.A. 82, 3499-3503; Yamatsuji, T. et al. (1996) Science 272, 1349-1352) were cultured in HamF-12 media containing 18% fetal bovine serum (FBS) and antibiotics. 7×10^4/well of F11 cells were seeded into a 6-well plate; cultured in HamF-12 containing 18% FBS for 12 to 16 hours; transfected 3 hours with plasmids encoding FAD genes and plasmids encoding HN (pHN, and such) by lipofection in the absence of serum (1 μg of FAD cDNA expression plasmid, 1 μg of HN cDNA expression plasmid, 4 μl of LipofectAMINE, 8 μl of Plus reagent); and then, were cultured for 2 hours in HamF-12 media containing 18% FBS. Then, culture media were exchanged with HamF-12 media containing 10% FBS; and the cells were cultured for additional 67 hours. 72 hours after transfection, cell death was measured by trypan blue exclusion assay. Experiments using synthetic HN polypeptides were conducted as follows: F11 cells (at 7×10^4/well in a 6-well plate) were transfected 3 hours with FAD genes in the absence of serum, as mentioned above; after cultivation for 2 hours in HamF-12 media containing 18% FBS, the cells were cultured for 67 hours in HamF-12 media containing 10% FBS with various concentrations of HN polypeptides; and cell death was measured by trypan blue exclusion assay. ALS-associated mutant cDNAs of SOD1 were also similarly transfected, and examined for their neurotoxicity.
# (§2) Trypan blue exclusion assay was performed as follows. Without prewashing, the cells were suspended with gentle pipetting into a serum-free media. 50 μl of 0.4% trypan blue solution (Sigma, Cat. #T-8154) were added (final concentration of 0.08%) to 200 μl cell suspension, and the suspension was mixed at room temperature. Within 3 minutes of the trypan blue solution addition, stained cells were counted. Cell mortality was determined [100-cell survival rate (%)] based on the stained cell count. LDH assay was performed using a kit (LDH-Cytotoxic Test; Wako Pure Chemical Industries, Cat. #299-50601) by sampling 6 μl of media in which neurons were cultured. Calcein staining was performed as described in literature (Bozyczko-Coyne, D. et al. (1993) Journal of Neuroscience Methods 50, 205-216). Specifically, 6 μM Calcein-AM (3′, 6′-Di-(O-acetyl)-2′-7′-bis[N,N-bis(carboxymethyl)aminomethyl]fluorescein, tetraacetoxymethyl ester; Dojindo, Cat. #349-07201) was added to the neurons; and 30 minutes or longer after Calcein-AM treatment, fluorescence (ex=490 nm, em=515 nm) was observed by fluorescence microscopy, and measured by a spectrometer. Specific fluorescence was calculated by subtracting basal fluorescence from total fluorescence. Basal fluorescence was assigned to be the value calculated from linear trypan blue positivity-fluorescence intensity relationship, corresponding to 100% trypan blue positivity.
# [2] = test system: F11 cells transfected with FAD genes (V642I APP, NL-APP, M146L PS-1, N141I PS-2); assay: FAD gene-induced F11 cell death, trypan blue exclusion assay; format: cell-based, rat/mouse hybrid; settings: for suppression of FAD gene-induced cell death: 10 nM polypeptide; for neuroprotective activity relative to HNG: all types of cell death (FAD genes, Aβ)
# Protocol: as §1, §2
# [3] = test system: primary cultured cortical neurons treated with Aβ1-43; assay: Aβ1-43-induced cell death of primary cultured cortical neurons, trypan blue exclusion assay; format: cell-based; settings: 10 nM polypeptide; for effect on Aβ1-43-induced cell death: 25 μM Aβ1-43, confirmed by LDH release and Calcein staining
# Protocol: Primary culture of mouse cortical neurons was performed in poly-D-lysine-coated 24-well plates (Sumitomo Bakelite) in the absence of serum and in the presence of N2 supplement, as described in literature (Ecksioglu, Y. Z. et al. (1994) Brain Res. 644, 282-90). The purity of neurons prepared according to the method was >98%. The prepared neurons (1.25×10^5/well, 250 μl media/well) were preincubated in the absence or presence of 10 nM or 10 μM sHN polypeptides for 16 hours; and were treated with 25 μM Aβ1-43 in the absence or presence of sHN polypeptides at the same concentrations for 24 to 72 hours. Since primary cultured neurons are damaged even by temporary dryness during medium exchange, treatment of the cells by Aβ1-43 was performed as follows. First, half of the volume of the old medium (125 μl) was discarded. Then, 125 μl of pre-warmed fresh medium containing 50 μM Aβ1-43 and sHN with a concentration indicated above were added to the culture.
# as §2
# [4] = test system: F11/EcR cells transfected with ecdysone-inducible Q79 plasmid; assay: Polyglutamine Q79-induced F11/EcR cell death (ecdysone-inducible), trypan blue exclusion assay; format: cell-based; settings: 1 μM polypeptide, 72 hours
# Protocol: F11/EcR cell experiment using ecdysone was conducted as follows: F11/EcR cells were seeded at 7×10^4/well into a 6-well plate; cultured for 12 to 16 hours in HamF-12 media containing 18% FBS; and were similarly transfected in the absence of serum for 3 hours with 1 μg of ecdysone-inducible plasmid alone, or with 1 μg of HN-encoding plasmid, as mentioned above. After culturing for 12 to 16 hours in HamF-12 media containing 18% FBS, the cells were cultured for 2 hours in HamF-12 media containing 10% FBS, then ecdysone (Ponasterone) was added to the media (final concentration of 40 μM). Cell death was measured 72 hours after ecdysone treatment. Experiments using synthetic HN polypeptides were conducted as follows: cells were similarly transfected for 3 hours with FAD genes in the absence of serum; cultured for 12 to 16 hours in HamF-12 media containing 18% FBS; cultured for 2 hours in HamF-12 media containing 10% FBS and various concentrations of HN polypeptide; and then, 40 μM Ponasterone was added to the media. Cell death was measured by trypan blue exclusion assay after 72 hours from the ecdysone treatment. HD/SCA-associated Q79 cDNAs were also similarly transfected, and the neurotoxicity was tested.
# (§3) Trypan blue exclusion assay was performed as follows. […] Within 3 minutes of the trypan blue solution addition, stained cells were counted. Cell mortality was determined [100-cell survival rate (%)] based on the stained cell count. […] Specifically, 6 μM Calcein-AM (3′, 6′-Di-(O-acetyl)-2′-7′-bis[N,N-bis(carboxymethyl)aminomethyl]fluorescein, tetraacetoxymethyl ester; Dojindo, Cat. #349-07201) was added to the neurons; and 30 minutes or longer after Calcein-AM treatment, fluorescence (ex=490 nm, em=515 nm) was observed by fluorescence microscopy, and measured by a spectrometer. Specific fluorescence was calculated by subtracting basal fluorescence from total fluorescence. Basal fluorescence was assigned to be the value calculated from linear trypan blue positivity-fluorescence intensity relationship, corresponding to 100% trypan blue positivity.
# [5] = test system: F11 cells transfected with SOD1 mutants (A4T, G85R, G93A); assay: ALS-associated SOD1 mutant-induced F11 cell death, trypan blue exclusion assay; format: cell-based, rat/mouse hybrid; settings: 100 μM polypeptide
# Protocol: as §1
# as §3, with “Basal fluorescence was assigned to be the value calculated from linear trypan blue positivity-fluorescence intensity relationship, corresponding to 100% trypan blue positivity.” left out
Substance,effect on Aβ1-43-induced cell death [3],suppression of FAD gene-induced cell death [2],suppression of V642I APP-induced cell death [1],neuroprotective activity relative to HNG [2],also measured
MAPRGFSCLLLLTGEIDLPVKRRA [sHNG],completely protected,,,,"IC50 ([1]; 72 h): ~0.1 nM; concentration giving complete antagonizing effect on V642I APP-induced cell death ([1]; synthetic polypeptide, 72 hours): ≤ 10 nM; concentration showing significant or sufficient neuroprotective action [2]: about 1 nM; concentration giving complete suppression of cell death ([2]; NL-APP, M146L PS-1, N141I PS-2): ≤ 10 nM; concentration giving complete antagonism/rescue of neuronal death ([2]; all four types of FAD genes): ≤ 10 nM; effect on Q79-induced cell death, synthetic polypeptide [4]: Extensive cell death; effect on SOD1 mutant-induced cell death, synthetic polypeptide [5]: couldn't be suppressed"
MAPRGFSCRLLLTSEIDLPVKRRA [sHNR],,,,,"cell mortality (%) ([1]; V642I APP cDNA, treated with 10 μM sHN polypeptides, 72 hours, mean ±S.D.): 17.7 ± 2.2 %"
PRGFSCLLLLTGEIDLP [HNG-17],completely antagonize,completely antagonize,,,"cell mortality ([3]; 25 μM Aβ1-43, 72 hours, mean ±S.D.): 28.8±2.3%"
SEQ ID NO: 46: HNG with Cys at position 8 substituted with His (MAPRGFSHLLLLTGEIDLPVKRRA),suppressed cell death,inhibited neuronal death,significant suppression activity,slight decrease in the cell death suppression activity,
SEQ ID NO: 48: HNG with Cys at position 8 substituted with Lys (MAPRGFSKLLLLTGEIDLPVKRRA),suppressed cell death,inhibited neuronal death,significant suppression activity,comparable to the original HNG polypeptide,
SEQ ID NO: 54: HNG with Cys at position 8 substituted with Arg (MAPRGFSRLLLLTGEIDLPVKRRA),suppressed cell death,inhibited neuronal death,significant suppression activity,comparable to the original HNG polypeptide,
